The source of these data is a melting point compilation (Tetko et al.; mined from patent text by program, amines drawn as free bases though some values may be those of a salt).

The structures appear in SMILES notation.

One may read the melting point as the temperature, or range, at which the solid turns liquid. On to `Cc1ccc(N2C(=O)C3=C(CCCC3)C2=O)c2c1OC(CO)C2` (centres undefined), for which the melting point was 177 to 179 °C.
To `Brc1ccc(N2CCC(Cc3ccccc3)CC2)nc1` belongs 78 °C; to `C#CCn1c(-c2cc(Cl)nc(Cl)c2)nc(CC)c(OC)c1=O`, 112 to 115 °C; to `CN(C)c1ccc(NC(=O)N(C[C@@H]2CCC[C@H](CN(CC(C)(C)C)C(=O)Nc3ccc(N(C)C)cc3)C2)CC(C)(C)C)cc1`, 171 to 173 °C.
To `O=CNC(=O)N1CC(Oc2cccc(C(F)(F)F)c2)C1` belongs 118 to 119 °C; to `C[C@@H](C[C@H](N)C(=O)O)C(=O)O`, 163 to 164 °C.
To `COC(=O)c1cc(C(=O)NCCN2CCOCC2)cc(-n2cccc2)c1` belongs 144 to 146 °C.
In the case of `CC(=O)N1c2ccccc2-c2c([N+](=O)[O-])cnn2C1C` (centres undefined), the melting point lay in the range of 149 to 150 °C.
To `CN(C)C(=O)C1CC(=O)N(c2cc(C(F)(F)F)cc(C(F)(F)F)c2)C1` (centres undefined) belongs 84.5 to 86 °C.
Next, `CCCn1c(=O)n2c(-c3ccc(C(=O)O)cc3)nnc2c2c1ncn2C`: greater than 315 °C.
To `Cc1ccc(-c2nc(C)c3ccccc3n2)nc1-c1ccccc1` belongs 141 to 143 °C; to `CP(C)(=O)COC(=O)c1ccccc1Nc1cccc(C(F)(F)F)c1`, 85 °C; to `CS(=O)(=O)c1ccc(-c2cc(C#N)sc2-c2ccc(F)cc2)cc1`, 139 to 140 °C.
`COc1ccc(C2=NN(CCCCOc3ccc(C(=O)O)cc3)C(=O)[C@H]3CC=CC[C@@H]23)cc1Cl` (relative stereo) registered a melting point of 169 to 171 °C.
To `CN(C)C=C1C(=O)OC(=O)c2ccccc21` belongs 137 to 140 °C; to `Cc1ccc2cccc(OCc3c(Cl)ccc(C4OCCO4)c3Cl)c2n1`, 82 to 85 °C; to `CC(C)C(=O)O[C@H]1[C@H](C)OC(=O)[C@@H](NC(=O)OC(C)(C)C)COC(=O)[C@@H]1CC(=O)O`, 164 to 167 °C.
Next, `O=CNc1nc(-c2ccccc2)c2cc(Cl)ccc2n1`: 252 °C; `O=C(Nc1ccccc1)Nc1cc(F)ccc1C(=O)O`: 163 to 166 °C; `Nc1cccc2c1COC2`: 85 to 89 °C.
To `COc1cc([C@H]2C(C#N)=C(N)Oc3c2ccc(NC(=O)CN(C)C(=O)OC2c4ccccc4-c4ccccc42)c3N)cc(Br)c1OC` belongs 128 to 130 °C.
Regarding `CCCCc1nc(Cl)c(COC)n1Cc1ccc2oc(-c3ccccc3-c3nnn[nH]3)c(Br)c2c1`, the melting point is 213 to 215 °C.
Next, `S=C1CSc2cccc(Cl)c2N1`: 138 to 140 °C; `N#Cc1ccc(C(=C2CCOC2=O)n2ccnc2)cc1`: 194 to 197 °C.
Next, `CC(=O)NC(CC(=O)O)CN(C)C` (centres undefined): 202 °C; `Cc1cnc(C(=O)NC(C)C)c(C(=O)O)c1`: 95 to 105 °C; `CCOC(=O)C1=CC(=O)C2(C(=O)c3ccc(Cl)cc3)OC2O1` (centres undefined): 100 °C.
Next, `CC(C)N(CCC(c1ccccc1)c1cc(CO)ccc1OC(=O)c1ccc([N+](=O)[O-])cc1)C(C)C` (centres undefined): 124 °C; `CC12CCC(C1)C1(C)Oc3ccc(Br)cc3C21C` (centres undefined): 120 °C; `CN(C)C/C=C/C(=O)Nc1cc2c(Nc3ccc(F)c(Br)c3)ncnc2cn1`: 163 to 166 °C.
`CCNc1ccc(C)c(O)c1` had a melting point of 128 to 129 °C.
Next, `O=c1oc2ccccc2c(O)c1-c1ccc(Cl)c(Cl)c1`: 262 °C; `NC(=O)c1cc(-c2ccc(F)cc2)sc1N`: 170 to 171 °C; `OC1(c2ccccc2)C(c2ccccc2)SC2=NCCCCN21` (centres undefined): 100 to 103 °C.
Next, `Nc1ncccc1OCc1c(Cl)cccc1Cl`: 141 to 142 °C.
To `CCC(C)(C)NC(=O)NC1=CC(=O)OC1` belongs 169 to 171 °C; to `CC(C)=C1C(=O)N(c2ccc(O)cc2)C(=O)/C1=C(/c1cc(C)sc1C)C(C)C`, 136 to 138 °C; to `N#Cc1c(-c2ccc(Cl)cc2)[nH]c(C(F)(F)F)c1Sc1ccc(Cl)c(Cl)c1`, 94 to 97 °C.
`CCn1ncc2c(NCc3cccc(OC)c3)c3ccccc3nc21`: the melting point is 260 to 263 °C.
Next, `CCOC(=O)c1ccccc1SC1C(=O)N(c2c(Cl)cc(Cl)cc2Cl)N=C1OC` (centres undefined): 185 to 187 °C; `CC(=C[N+](=O)[O-])NCCN(C)Cc1ccc(Cl)nc1`: 78 to 80 °C; `Cc1cn(C(C)C(=O)N(C)C)nc1-c1ccccc1Br` (centres undefined): 102 to 104 °C.
In the case of `CCCCNC(=O)N1CC(Oc2cccc(C(F)(F)F)c2)C1`, the melting point lay within 108 to 109 °C.
Next, `C#CCN(CC#C)S(=O)(=O)c1cccc2c(N(C)C)cccc12`: 67 to 69 °C.
Compound `COc1ccc(S(=O)(=O)N(Cc2ccccc2)c2c(C(=O)NO)cnc3c2c(C)nn3C)cc1` yielded a melting point of 184 to 186 °C.
Turning to `O=c1[nH]c(=O)n(Cc2cccc(OCc3noc(-c4ccc(Cl)cc4)n3)c2)o1`, the melting point lay within 159 to 160 °C.
Next, `C#CCCCCn1ncc2c(N)c(C(=O)OCC)c(C)nc21`: 63 to 65 °C.
The compound `CCC(CC)Nc1cc(C)nc(Oc2c(C)cc(C)cc2C)c1CN` displayed a melting point of 117 to 119 °C.
Next, `CCCCCc1c(C(C)C)nc(C(C)C)c(CO)c1-c1ccc(CC)cc1`: 87 to 88 °C; `O=C(CO[C@H]1NC(=O)[C@@H]1NC(=O)c1ccccc1)CC(=O)OCc1ccc([N+](=O)[O-])cc1`: 138 to 139 °C.
To `CCn1c(=O)c2[nH]c(/C=C/c3ccc(OC)c(Br)c3)nc2n(CC)c1=O` belongs greater than 280 °C; to `c1cn2nc(N3CCCCC3)c3c(c2n1)CCCC3`, 95 °C; to `CON=C(C1=NOCCO1)c1ccccc1CCl`, 93 to 96 °C.
Next, `CCC(=O)c1cc(C2(c3cccc(Br)c3)N=C(N)N(C)C2=O)cn1CC` (centres undefined): 100 to 102 °C; `NC(=O)c1nccn1C1Cc2cc(Cl)ccc2C1=O` (centres undefined): 240 °C; `COc1ccc(C(=O)Nc2ccc(C(C)(C)C(N)=O)cc2)cc1`: 234 to 235 °C.
`NC(=O)c1cccc(N2CCN(C(=O)c3c(-c4ccccc4)ccn3CC(=O)O)CC2)c1`: the melting point was 132 °C.
Compound `COC(=O)C(=O)c1ccc(OCCSc2ccccc2)cc1` showed a melting point of 49 to 51 °C.
Consider `N#Cc1c(Br)[nH]c(Br)c1C(F)(F)F`, for which the melting point was in the range of 198 to 200 °C.
To `O=C(O)CCc1cc(-c2ccc(Cl)cc2)n(-c2ccccc2)n1` belongs 138 to 139 °C.
Next, `Cn1cc(C2CCN(CCCCNC(=O)c3sc(-c4ccc(C(F)(F)F)cc4)nc3CO)CC2)c2ccccc21`: 160 °C.
In turn, `CCOC(=O)c1ccc(NCCOc2ccc(Br)c3ccccc23)cc1` gave a melting point of 126 to 127 °C.
Next, `CC(C)c1c(C(=O)Nc2ccc(O)cc2)c(-c2ccccc2)c(-c2ccc(F)cc2)n1CC[C@@H]1C[C@@H](O)CC(=O)O1`: 130 to 133 °C; `Cc1ccc(-c2c3cc(C)ccc3nc3ccc(C)cc23)cc1`: 210 to 211 °C.
To `COc1ccc(NN=C(Sc2ccc(S(C)(=O)=O)cc2)C(C)=O)cc1` belongs 145 to 153 °C.
Next, `Cc1cccc(-c2sc(N)nc2-c2ccnc(-c3ccc(OCC(=O)N4CCOCC4)cc3)c2)n1`: 172 °C; `COc1ccc(C(=O)Nc2cccc3[nH]ccc23)c(OCC2CO2)c1` (centres undefined): 157 °C.
For the compound `CCCCc1ccc(OC)c(-c2csc(N)n2)c1`, the melting point was 48 °C.
Next, `COc1cc(C(C)=O)ccc1OCCN1CCC(c2noc3cc(Cl)ccc23)CC1`: 133 to 135 °C; `COc1ccc(-c2nnc3c4ccccc4c(CNCCCC#N)nn23)cc1`: 117 to 119 °C; `CCOC(=O)COc1c2c3c(ccnc3c3ccccc13)CCC2`: 70 °C.
Next, `c1cn(Cc2nc(-c3ccc4c(c3)OCO4)c3cc4c(cc3n2)OCO4)cn1`: 182 to 185 °C.
Next, `CC(N1CCN(c2ncn(Cc3ccc(C(F)(F)F)cc3)n2)CC1)C(O)(Cn1cncn1)c1ccc(F)cc1F` (centres undefined): 69 to 72 °C; `CC(Oc1ccc(Oc2cnc3cc(Cl)ccc3n2)cc1F)C(=O)O` (centres undefined): 132 to 138 °C.
The compound `O=C(c1cc(F)cc(F)c1)c1cc(F)cc(F)c1` returned a melting point of 79 °C.
To `C[C@H](NC(=O)Cc1cccc(F)c1)C(=O)N[C@@H]1C(=O)Nc2ccccc2O[C@@H]1c1ccccc1` belongs 130 to 140 °C; to `O=C1OC(Cl)(c2ccc(Cl)cc2)c2ccccc21` (centres undefined), 133 to 135 °C.
To `CC(C)CCOC(=O)COc1cc(F)ccc1C(=O)NCc1cccc([N+](=O)[O-])c1` belongs 65 to 68 °C; to `COc1c(C)c(C)c2c(c1C)C(c1ccc(CBr)cc1)C(C)(C)O2` (centres undefined), 97 to 98 °C; to `CCCCCN(Cc1ccc(-c2ccccc2S(=O)(=O)NC(=O)c2ccccc2Cl)cc1)C(=O)N1CCc2ccccc21`, 83 to 85 °C.
To `CC(=O)OC1CCc2cc3ccccc3n2C1` (centres undefined) belongs 90 to 95 °C; to `CC(=O)C(=[N+]=[N-])C(=O)CCc1ccccc1`, 30 to 32 °C.
`NC(=O)c1nn(C2OC(CO)C(O)C2O)nc1C(N)=O` (centres undefined): the melting point is 210 to 212 °C.
To `COC(=O)c1ccc(Cl)c2c1C=CCO2` belongs 49 to 50 °C; to `O=Cc1ncn2c1[C@@H]1CCCN1C(=O)c1ccccc1-2`, 206 to 208 °C; to `O=S(=O)(c1ccccc1)N1CCC(Nc2nc(OCC(F)(F)F)nc(N3CCCC3)n2)CC1`, 212 to 213 °C.
Next, `COc1cc(COC(=O)NC2Cc3ccccc3C2)ccc1OC(C)=O`: 114 to 116 °C.
Next, `CCCc1nc2c(N)nc3cc(OCCCNC(=O)OC(C)(C)C)ccc3c2s1`: 146 to 149 °C; `O=C(CCCc1ccccc1)N[C@H](Cc1ccc(C(F)(F)F)cc1)[C@@H](O)c1ccc(F)cc1` (racemic): 150 to 151 °C.
